Assay results as given in PubChem BioAssay (NCI).
Values joined by “and” are separate entries in the source; they are usually repeats but may differ in a detail not shown here. Equal values may be shown once.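 Step 1: Grow cells in 96-well plates. Step 2: Expose to compound for 48 hours at 5 concentrations. Step 3: Interpolate endpoints linearly; if unreached, use highest concentration. Abbreviation: GI50, concentration required for 50% inhibition of growth. The concentration for full growth arrest is given as TGI.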

Key:
Assay in all cases: inhibition of tumour cell growth, NCI panel, 48 h
OVCAR-5 ovarian = system: OVCAR-5 ovarian
MCF7 breast = system: MCF7 breast
K-562 leukemia = system: K-562 leukemia
LOX IMVI melanoma = system: LOX IMVI melanoma
RXF 393 renal = system: RXF 393 renal
SK-OV-3 ovarian = system: SK-OV-3 ovarian
NCI/ADR-RES ovarian = system: NCI/ADR-RES ovarian
PC-3 prostate = system: PC-3 prostate
M14 melanoma = system: M14 melanoma
MDA-MB-435 = system: MDA-MB-435
SR leukemia = system: SR leukemia
DU-145 prostate = system: DU-145 prostate
HS 578T breast = system: HS 578T breast
MDA-MB-231 breast = system: MDA-MB-231 breast
ACHN renal = system: ACHN renal

SMILES: CN1C(=O)c2ccccc2NC(=O)c2cnn(C)c21
- TGI (OVCAR-5 ovarian): > 100 µM
- TGI (MCF7 breast): > 100 µM
- TGI (K-562 leukemia): > 100 µM
- TGI (LOX IMVI melanoma): > 100 µM
- TGI (RXF 393 renal): > 100 µM
- TGI (SK-OV-3 ovarian): > 100 µM
- TGI (NCI/ADR-RES ovarian): > 100 µM

SMILES: CC1=C(C)C(=O)O[C@@H]([C@](C)(O)[C@]2(O)CC[C@@]3(O)[C@@H]4C[C@H]5O[C@]56[C@@H](O)C=CC(=O)[C@]6(C)[C@H]4CC[C@]23C)C1
- GI50 (OVCAR-5 ovarian): 3.55 µM and 1.47 µM
- TGI (OVCAR-5 ovarian): 8.44 µM and 5.88 µM
- GI50 (MCF7 breast): 0.164 µM
- TGI (MCF7 breast): 2.94 µM and 3.41 µM
- GI50 (K-562 leukemia): 0.126 µM and 0.0515 µM
- TGI (K-562 leukemia): 2.62 µM and 15 µM
- TGI (LOX IMVI melanoma): 2.64 µM
- GI50 (RXF 393 renal): 0.21 µM and 0.0646 µM
- TGI (RXF 393 renal): 0.575 µM and 0.516 µM
- TGI (SK-OV-3 ovarian): 14.7 µM and 20.4 µM
- GI50 (NCI/ADR-RES ovarian): 9.65 µM and 6.24 µM
- TGI (NCI/ADR-RES ovarian): 131 µM and 57.5 µM

SMILES: S=C1SC(=Nc2ccccc2)C(=Nc2ccccc2)N1c1ccccc1
- TGI (OVCAR-5 ovarian): > 100 µM
- TGI (MCF7 breast): > 100 µM
- TGI (PC-3 prostate): > 100 µM
- TGI (K-562 leukemia): > 100 µM
- TGI (M14 melanoma): > 100 µM
- TGI (MDA-MB-435): > 100 µM
- TGI (SR leukemia): > 100 µM
- TGI (DU-145 prostate): > 100 µM
- TGI (RXF 393 renal): > 100 µM
- TGI (SK-OV-3 ovarian): > 100 µM
- TGI (HS 578T breast): > 100 µM
- TGI (MDA-MB-231 breast): > 100 µM
- TGI (NCI/ADR-RES ovarian): > 100 µM

SMILES: O=C(O)CNC(=O)CO/N=C1/C(c2c(O)[nH]c3ccccc23)=Nc2ccccc21
- TGI (OVCAR-5 ovarian): > 100 µM
- TGI (MCF7 breast): > 100 µM
- TGI (PC-3 prostate): > 100 µM
- TGI (K-562 leukemia): > 100 µM
- TGI (M14 melanoma): > 100 µM
- TGI (ACHN renal): > 100 µM
- TGI (MDA-MB-435): > 100 µM
- TGI (LOX IMVI melanoma): > 100 µM
- TGI (SR leukemia): > 100 µM
- TGI (DU-145 prostate): > 100 µM
- TGI (RXF 393 renal): > 100 µM
- TGI (SK-OV-3 ovarian): > 100 µM
- TGI (HS 578T breast): > 100 µM
- TGI (MDA-MB-231 breast): > 100 µM
- TGI (NCI/ADR-RES ovarian): > 100 µM

SMILES: COCO[C@@H]1C[C@H]2C(O)Nc3ccccc3C(=O)N2C1 (stereo not given in full)
- TGI (OVCAR-5 ovarian): > 100 µM
- TGI (MCF7 breast): > 100 µM
- TGI (PC-3 prostate): > 100 µM
- TGI (K-562 leukemia): > 100 µM
- TGI (M14 melanoma): > 100 µM
- TGI (ACHN renal): > 100 µM
- TGI (MDA-MB-435): > 100 µM
- TGI (LOX IMVI melanoma): > 100 µM
- TGI (SR leukemia): > 100 µM
- TGI (DU-145 prostate): > 100 µM
- TGI (RXF 393 renal): > 100 µM
- TGI (SK-OV-3 ovarian): > 100 µM
- TGI (HS 578T breast): > 100 µM
- TGI (MDA-MB-231 breast): > 100 µM
- TGI (NCI/ADR-RES ovarian): > 100 µM

SMILES: CCSc1nc(N)c2c(-c3ccc(OC)c(OC)c3)c3c(nc2n1)CCCC3
- TGI (OVCAR-5 ovarian): > 100 µM
- TGI (MCF7 breast): > 100 µM
- TGI (PC-3 prostate): > 100 µM
- TGI (K-562 leukemia): > 100 µM
- TGI (M14 melanoma): > 100 µM
- TGI (ACHN renal): > 100 µM
- TGI (MDA-MB-435): > 100 µM
- TGI (LOX IMVI melanoma): > 100 µM
- TGI (SR leukemia): > 100 µM
- TGI (DU-145 prostate): > 100 µM
- TGI (RXF 393 renal): > 100 µM
- TGI (SK-OV-3 ovarian): > 100 µM
- TGI (HS 578T breast): > 100 µM
- TGI (MDA-MB-231 breast): > 100 µM
- TGI (NCI/ADR-RES ovarian): > 100 µM

SMILES: CCC(=O)Nc1ccc(N=Cc2cccc(Oc3ccccc3)c2)cc1
- TGI (MCF7 breast): > 100 µM
- TGI (PC-3 prostate): > 100 µM
- TGI (K-562 leukemia): > 100 µM
- TGI (M14 melanoma): > 100 µM
- TGI (ACHN renal): > 100 µM
- TGI (MDA-MB-435): > 100 µM
- TGI (LOX IMVI melanoma): > 100 µM
- TGI (SR leukemia): 67.9 µM
- TGI (DU-145 prostate): > 100 µM
- TGI (RXF 393 renal): > 100 µM
- TGI (SK-OV-3 ovarian): > 100 µM
- TGI (HS 578T breast): > 100 µM
- TGI (NCI/ADR-RES ovarian): > 100 µM

SMILES: COCc1nc2c(OC)cc(-c3nc4nc(N5CCN(C)CC5)ccc4[nH]3)c(OC)c2[nH]1
- TGI (OVCAR-5 ovarian): > 100 µM
- TGI (MCF7 breast): > 100 µM
- TGI (PC-3 prostate): > 100 µM
- TGI (K-562 leukemia): > 100 µM
- TGI (M14 melanoma): 42.4 µM
- TGI (ACHN renal): > 100 µM
- TGI (MDA-MB-435): > 100 µM
- TGI (LOX IMVI melanoma): > 100 µM
- TGI (SR leukemia): > 100 µM
- TGI (DU-145 prostate): > 100 µM
- TGI (RXF 393 renal): > 100 µM
- TGI (SK-OV-3 ovarian): > 100 µM
- TGI (HS 578T breast): > 100 µM
- TGI (MDA-MB-231 breast): > 100 µM
- TGI (NCI/ADR-RES ovarian): > 100 µM

SMILES: Cc1cc(NC(=S)Nc2ccccc2)c(NC(=S)Nc2ccccc2)cc1C
- TGI (OVCAR-5 ovarian): > 100 µM
- TGI (MCF7 breast): 98.6 µM
- TGI (K-562 leukemia): 41.2 µM
- TGI (LOX IMVI melanoma): > 100 µM
- TGI (RXF 393 renal): > 80.8 µM
- TGI (SK-OV-3 ovarian): > 75 µM
- TGI (NCI/ADR-RES ovarian): 28.9 µM

SMILES: CC(C)=CC1C(COC(=O)c2cc3c(cc2Cl)OCO3)C1(C)C (stereo not given)
- TGI (OVCAR-5 ovarian): > 100 µM
- TGI (PC-3 prostate): > 100 µM
- TGI (K-562 leukemia): > 100 µM
- TGI (M14 melanoma): > 100 µM
- TGI (ACHN renal): > 100 µM
- TGI (MDA-MB-435): > 100 µM
- TGI (LOX IMVI melanoma): 50 µM
- TGI (SR leukemia): 78.3 µM
- TGI (DU-145 prostate): > 100 µM
- TGI (RXF 393 renal): 48.9 µM
- TGI (HS 578T breast): 53.8 µM
- TGI (MDA-MB-231 breast): > 100 µM
- TGI (NCI/ADR-RES ovarian): > 100 µM

SMILES: COC(=O)CCC(=O)CC(=O)C1=NS(=O)(=O)c2nc(S(N)(=O)=O)c(Cl)cc2N1
- TGI (OVCAR-5 ovarian): > 100 µM
- TGI (K-562 leukemia): > 100 µM
- TGI (M14 melanoma): > 100 µM
- TGI (ACHN renal): > 100 µM
- TGI (LOX IMVI melanoma): > 100 µM
- TGI (SR leukemia): > 100 µM
- TGI (RXF 393 renal): > 100 µM
- TGI (SK-OV-3 ovarian): > 100 µM

SMILES: CC1C(=O)OC2CC[N+]3(CC(=O)c4ccc(Br)cc4)CC=C(COC(=O)C(C)(O)C1(C)O)C23 (stereo not given)
- TGI (OVCAR-5 ovarian): > 375 µM
- TGI (MCF7 breast): > 375 µM
- TGI (K-562 leukemia): > 375 µM
- TGI (LOX IMVI melanoma): > 375 µM
- TGI (RXF 393 renal): > 375 µM
- TGI (SK-OV-3 ovarian): > 375 µM
- TGI (NCI/ADR-RES ovarian): > 375 µM
